Values of other authors, collected in US20010034325A1, “Dietary modulators of gamma glutamyl transpeptidase” (priority 2000, published 2001).

Experiments:
[1] = molecular target: GGTP (Homo sapiens, UniProt P19440); settings: Misra et al. 1996
[2] = system: GGT; settings: 12-o-tetradecanoyl phorbol-13-acetate induced activity

Chain of GGTP (P19440 whole entry): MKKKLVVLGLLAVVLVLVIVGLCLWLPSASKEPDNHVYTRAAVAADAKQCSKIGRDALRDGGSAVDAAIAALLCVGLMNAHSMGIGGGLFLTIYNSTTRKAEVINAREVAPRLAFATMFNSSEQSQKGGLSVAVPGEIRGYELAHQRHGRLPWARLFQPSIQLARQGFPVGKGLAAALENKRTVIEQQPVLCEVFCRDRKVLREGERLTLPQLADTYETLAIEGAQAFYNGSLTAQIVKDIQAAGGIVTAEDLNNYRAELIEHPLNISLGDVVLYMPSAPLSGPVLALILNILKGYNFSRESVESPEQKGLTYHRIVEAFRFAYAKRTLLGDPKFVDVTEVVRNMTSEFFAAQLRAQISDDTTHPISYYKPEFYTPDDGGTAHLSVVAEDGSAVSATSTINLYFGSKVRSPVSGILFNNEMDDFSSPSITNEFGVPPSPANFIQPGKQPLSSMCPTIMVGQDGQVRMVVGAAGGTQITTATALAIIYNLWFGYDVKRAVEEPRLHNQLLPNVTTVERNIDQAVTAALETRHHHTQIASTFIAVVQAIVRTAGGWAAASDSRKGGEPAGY

Compound	effect on diabetes [1]	inhibition of GGT levels [2]
N[C@H](C(=O)O)[C@@H]1CC(Cl)=NO1 [acivicin]	prevents overt diabetes	
C=CCSCC=C [diallylsulfide (DAS), diallylsulfide]		inhibited significantly
OCc1c[nH]c2ccccc12 [indole-3-carbinol (I3C), indole-3-carbinol]		inhibited significantly
